From patent publication US20240034992A1, “DOPAMINERGIC NEURONS COMPRISING MUTATIONS AND METHODS OF USE THEREOF” (FUJIFILM Cellular Dynamics, Inc., priority 2021, published 2024)

How the values were obtained:
LRRK2 DA neurons = assay: Calcium imaging (Ca oscillation, FDSS/μCELL) of DA neuron spheroids, LRRK2; type: cell-based, human
Protocol: (§1) For calcium imaging experiments, DA neurons were cultured as spheroids (50,000/well) in the 384 U bottom ULA plates (S-bio plates) and fed with Brainphys complete media (Brainphys basal media+neural supplement A+NSS). […] On day 14 post-plating (7 days post-treatment) cells were loaded with 1× EarlyTOX cardiotoxicity kit and after 2 hours of incubation at 37° C., Ca2+ oscillation captured using FDSS/μCELL instrument for 20 minutes. Waveform software was used for quantification of Ca oscillation and data were analyzed using GraphPad Prism.
(§2) Calcium oscillation traces of day 14 post plated DA neurons were captured using FDSS/μCELL instrument for 20 minutes. […] Calcium transient properties including (FIG. 13B) number of peaks, (FIG. 13C) peak rates per minute and (FIG. 13D) area under the curve/peak (average) were quantified for all wells (repeats) of each cell line using Waveform software.

GCase [1] = molecular target: T1, GCase (Homo sapiens, UniProt P04062); assay: GCase activity assay after compound treatment, SNCA A53T iPSC-derived DA neurons; type: cell-based; details: 10 uM for two weeks, day 21 post thaw
T1 construct: endogenous in cells; host or cells: DA neurons differentiated from LRRK2 patient, SNCA A53T engineered or AHN (healthy donor) iPSCs (lysate)
T1 sequence (P04062 40-536): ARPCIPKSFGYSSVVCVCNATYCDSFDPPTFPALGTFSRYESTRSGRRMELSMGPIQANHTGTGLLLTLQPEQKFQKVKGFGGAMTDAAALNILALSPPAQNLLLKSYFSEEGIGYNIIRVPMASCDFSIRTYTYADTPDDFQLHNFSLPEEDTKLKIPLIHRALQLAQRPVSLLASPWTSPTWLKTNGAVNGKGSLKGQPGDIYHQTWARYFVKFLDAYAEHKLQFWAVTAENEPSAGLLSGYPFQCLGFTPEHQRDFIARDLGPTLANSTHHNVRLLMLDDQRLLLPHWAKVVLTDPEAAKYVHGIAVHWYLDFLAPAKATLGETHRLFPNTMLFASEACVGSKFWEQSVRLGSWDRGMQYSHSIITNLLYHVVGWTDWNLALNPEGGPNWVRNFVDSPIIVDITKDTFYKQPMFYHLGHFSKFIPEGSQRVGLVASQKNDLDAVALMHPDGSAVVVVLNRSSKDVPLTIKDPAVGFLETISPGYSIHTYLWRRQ
Protocol: (§3) The cells were harvested, lysed and centrifuged at 20,000×g for 20 min at 4° C. […] Recombinant human Glucosylceramidase/GBA (rhGBA) (R&D, 7410-GHB-020) was used as a positive control. Samples were incubated for 40 minutes at 37° C. and reaction stopped by adding equivolume 1M glycine, pH 12.5. 100 μl of reactions were loaded into white 96-well plates (Nunc, #136101) and fluorescence (ex=355 nm, em=460, 0.1 s) signal were measured in the CLARIOstar plate reader (Molecular Devices). Relative fluorescent units (RFUs) from non CBE-treated lysates were calculated by subtracting the signal from the corresponding CBE-treated lysates. […] DA neurons were cultured at high density (200,000/well) in the 96 well plates. Gcase activity was measured from DA neurons derived from GBA, LRRK2 and AHN iPSCs after compound treatment. […] Total protein in the lysate was quantified using Pierce BCA Protein Assay Kit (ThermoFisher). […] Single compounds were tested both for acute exposure (3 days) and chronic exposure (two weeks).

GCase [2] = assay: GCase activity assay after compound treatment, GBA (N370S) iPSC-derived DA neurons; type: cell-based, human; details: for GCase activity (mean±SD): chronic treatment (two weeks) 10 uM, DMSO=90302±3986
Protocol: The cells were harvested, lysed and centrifuged at 20,000×g for 20 min at 4° C. […] Recombinant human Glucosylceramidase/GBA (rhGBA) (R&D, 7410-GHB-020) was used as a positive control. Samples were incubated for 40 minutes at 37° C. and reaction stopped by adding equivolume 1M glycine, pH 12.5. 100 μl of reactions were loaded into white 96-well plates (Nunc, #136101) and fluorescence (ex=355 nm, em=460, 0.1 s) signal were measured in the CLARIOstar plate reader ([…]). Relative fluorescent units (RFUs) from non CBE-treated lysates were calculated by subtracting the signal from the corresponding CBE-treated lysates. […] DA neurons were cultured at high density (200,000/well) in the 96 well plates. Gcase activity was measured from DA neurons derived from GBA, LRRK2 and AHN iPSCs after compound treatment. […] Total protein in the lysate was quantified using Pierce BCA Protein Assay Kit (ThermoFisher). GCase activity can be used as a read out for compound screening with disease neurons where AHN serve as a control and compounds that could rescue the GCase activity would be considered a positive hit. […] Single compounds were tested both for acute exposure (3 days) and chronic exposure (two weeks).

GCase [3] = molecular target: T1, GCase; assay: GCase activity assay after compound treatment, AHN iPSC-derived DA neurons; type: cell-based; details: 10 uM for two weeks, day 21 post thaw, from 165052 (DMSO vehicle)
Protocol: as §3

SNCA DA neurons = assay: Calcium imaging (Ca oscillation, FDSS/μCELL) of DA neuron spheroids, SNCA; type: cell-based, human; details: 10 uM for one week
Protocol: as §1, §2

AHN DA neurons = assay: Calcium imaging (Ca oscillation, FDSS/μCELL) of DA neuron spheroids, AHN; type: cell-based, human; details: 10 uM for one week
Protocol: as §1, §2

GCase [4] = molecular target: T1, GCase; assay: GCase activity assay after compound treatment, LRRK2 (G2019S) iPSC-derived DA neurons; type: cell-based; details: 10 uM for two weeks, day 21 post thaw
Protocol: as §3

Nc1c(Br)cc(Br)cc1CN[C@H]1CC[C@H](O)CC1 [Ambroxol]
Peak rate (mean±SD) (LRRK2 DA neurons; LRRK2, 10 uM for one week, day 14 post plating, untreated 1.52±0.16): 1.89±0.18 peaks per minute
effect on Ca oscillation compared to the untreated AHN DA neurons (LRRK2 DA neurons; LRRK2 DA neurons, 10 uM for one week): caused hyperexcitability
increase in Gcase activity (GCase [1]): 14%
increase in Gcase activity (GCase [2]; GBA neurons, 10 uM for two weeks, day 21 post thaw): 12%
increase in Gcase activity (GCase [2]; combinatorial screen, GBA cells, chronic treatment 10 uM, compared to DMSO): 48%
GCase activity (mean±SD) (GCase [2]; combinatorial screen, GBA cells): highest GCase activity
GCase activity (mean±SD) (GCase [2]; combinatorial screen, GBA cells, listed as ABX): 133659±10542
Gcase activity (Mean) (GCase [3]): 171669
effect on Ca oscillation compared to the untreated AHN DA neurons (SNCA DA neurons; SNCA DA neurons): caused hyperexcitability
number of peaks (mean±SD) (SNCA DA neurons; SNCA, day 14 post plating, 20 minutes, untreated 24.5±5.3): 33.8±1.5
Peak rate (mean±SD) (SNCA DA neurons; SNCA, day 14 post plating, untreated 1.26±0.3): 1.61±0.12 peaks per minute
effect on Ca oscillation compared to the untreated AHN DA neurons (AHN DA neurons; AHN DA neurons): caused hyperexcitability
number of peaks (mean±SD) (AHN DA neurons; AHN, day 14 post plating, 20 minutes, untreated 21.55±3): 33.75±7.14
Peak rate (mean±SD) (AHN DA neurons; AHN, day 14 post plating, untreated 1.12±0.16): 1.74±0.32 peaks per minute
increase in Gcase activity (GCase [4]): 18%
